Measured values published in article PMC10180054, “Design, Synthesis and Biological Evaluation of Novel Pleuromutilin Derivatives Containing 6-Chloro-1-R-1H-pyrazolo[3,4-d]pyrimidine-4-amino Side Chain” (Molecules, 2023).
Converted amounts (≈) assume the structure as drawn.

Assays:
[1] = tested on: S. aureus ATCC 29213; experiment: MIC/MBC by broth dilution (CLSI); type: cell-based; details: Staphylococcus aureus; for MIC: S. aureus ATCC 29213, broth dilution, 24 h, 37 °C; for MBC: S. aureus ATCC 29213
Experimental: (§1) The in vitro antimicrobial activity of the pleuromutilin derivatives was assessed against MRSA ATCC 43300, S. aureus ATCC 29213, S. aureus 144 and S. aureus AD3 according to the Clinical and Laboratory Standards Institute (CLSI). Tiamulin was used as a positive control drug. The results were summarized as the minimum inhibitory concentration (MIC) and the minimum bactericidal concentration (MBC) in Table 1 and Table 2. In addition, MIC results for the pleuromutilin derivatives against four Gram-negative bacteria are supplied in Tables S2 and S3.
(§2) The MIC and MBC values of the synthesized novel pleuromutilin derivatives against MRSA ATCC 43300, S. aureus ATCC 29213, S. aureus 144 and S. aureus AD3 were measured. Tiamulin was used as a positive control drug. The MIC and MBC values were manipulated by broth dilution according to the Clinical and Laboratory Standards (CLSI). Each compound to be measured was dissolved in a solution of 95% deionized water, 2.5% dimethyl sulfoxide (DMSO) and 2.5% Tween-80 with a concentration of 1280 µg/mL. Subsequently, serial twofold dilutions were made in a concentration range from 64 µg/mL to 0.0625 µg/mL. The working bacterial suspension was inoculated into each well, which provided the final inoculum density of 5 × 10^5 CFU/mL. Three parallel experiments were performed for each compound.
(§3) Overall, 25 µL of the bacterial solution from the wells with no obvious bacterial growth was inoculated on MH agar plates. Then, the inoculated MH agar plates were further cultured at 37 °C for 24 h.

[2] = tested on: S. aureus AD3; experiment: MIC/MBC by broth dilution (CLSI); type: cell-based; details: Staphylococcus aureus, S. aureus AD3 (clinical strain)
Experimental: as §1, §2, §3

[3] = tested on: S. aureus 144; experiment: MIC/MBC by broth dilution (CLSI); type: cell-based; details: Staphylococcus aureus; S. aureus 144 (clinical strain)
Experimental: as §1, §2, §3

[4] = tested on: MRSA ATCC 43300; experiment: MIC/MBC by broth dilution (CLSI); type: cell-based, Staphylococcus aureus; details: Staphylococcus aureus; for MIC: MRSA ATCC 43300, broth dilution, 24 h, 37 °C, read-out: MIC; for MBC: MRSA ATCC 43300, 99.9% of the bacteria killed
Experimental: as §1, §2, §3

Structure (SMILES) | MIC ([1]; ATCC29213) [µg/mL] | MIC [2] [µg/mL] | MIC [3] [µg/mL] | MIC [4] [µg/mL] | melting point [°C] | MBC ([1]; ATCC29213) [µg/mL] | MBC ([2]; 24 h) [µg/mL] | MIC ([2]; 24 h) [µg/mL] | MBC [3] [µg/mL] | MBC [4] [µg/mL] | MBC ([1]; ATCC29213, 24 h) [µg/mL] | MBC [2] [µg/mL]
C=C[C@]1(C)C[C@@H](OC(=O)CSc2ccc(Nc3nc(Cl)nc4c3cnn4-c3ccccc3F)cc2)[C@]2(C)[C@H](C)CC[C@]3(CCC(=O)[C@H]32)[C@@H](C)[C@@H]1O [Compound 18c, 22-[4-(6-Chloro-1-(2-fluorophenyl)-1H-pyrazolo[3,4-d]pyrimidine-4-yl)amino-Phenylsulfanyl]-22-deoxypleuromutilin] | > 64 | > 64 | > 64 | > 64 | 123 to 127 |  |  |  |  |  |  | 
C=C[C@]1(C)C[C@@H](OC(=O)CNc2nc(Cl)nc3c2cnn3-c2ccc(F)cc2)[C@]2(C)[C@H](C)CC[C@]3(CCC(=O)[C@H]32)[C@@H](C)[C@@H]1O [Compound 19b, 22-[(6-Chloro-1-(4-fluorophenyl)-1H-pyrazolo[3,4-d]pyrimidine-4-yl)amino]-22-deoxypleuromutilin] | 16 (≈ 25.6 µM) |  | 32 (≈ 51.3 µM) | 16 (≈ 25.6 µM) | 112 to 115 | > 64 | > 64 | 8 (≈ 12.8 µM) | > 64 | > 64 |  | 
C=C[C@]1(C)C[C@@H](OC(=O)CNc2nc(Cl)nc3c2cnn3-c2ccc(F)cc2F)[C@]2(C)[C@H](C)CC[C@]3(CCC(=O)[C@H]32)[C@@H](C)[C@@H]1O [Compound 20b, 22-[(6-Chloro-1-(2,4-difluorophenyl)-1H-pyrazolo[3,4-d]pyrimidine-4-yl)amino]-22-deoxypleuromutilin] | > 64 | > 64 | > 64 | > 64 | 123 to 125 |  |  |  |  |  |  | 
C=C[C@]1(C)C[C@@H](OC(=O)CSc2ccc(Nc3nc(Cl)nc4c3cnn4-c3ccc(F)cc3F)cc2)[C@]2(C)[C@H](C)CC[C@]3(CCC(=O)[C@H]32)[C@@H](C)[C@@H]1O [Compound 20c, 22-[4-(6-Chloro-1-(2,4-difluorophenyl)-1H-pyrazolo[3,4-d]pyrimidine-4-yl)amino-Phenylsulfanyl]-22-deoxypleuromutilin] | > 64 | > 64 | > 64 | > 64 | 132 to 134 |  |  |  |  |  |  | 
C=C[C@]1(C)C[C@@H](OC(=O)CNc2nc(Cl)nc3c2cnn3-c2cc(F)ccc2F)[C@]2(C)[C@H](C)CC[C@]3(CCC(=O)[C@H]32)[C@@H](C)[C@@H]1O [Compound 21b, 22-[(6-Chloro-1-(2,5-difluorophenyl)-1H-pyrazolo[3,4-d]pyrimidine-4-yl)amino]-22-deoxypleuromutilin] | > 64 | > 64 | > 64 | > 64 | 121 to 125 |  |  |  |  |  |  | 
C=C[C@]1(C)C[C@@H](OC(=O)CSc2ccc(Nc3nc(Cl)nc4c3cnn4-c3cc(F)ccc3F)cc2)[C@]2(C)[C@H](C)CC[C@]3(CCC(=O)[C@H]32)[C@@H](C)[C@@H]1O [Compound 21c, 22-[4-(6-Chloro-1-(2,5-difluorophenyl)-1H-pyrazolo[3,4-d]pyrimidine-4-yl)amino-Phenylsulfanyl]-22-deoxypleuromutilin] | > 64 | > 64 | > 64 | > 64 | 115 to 118 |  |  |  |  |  |  | 
C=C[C@]1(C)C[C@@H](OC(=O)CNc2nc(Cl)nc3c2cnn3-c2ccc(F)c(F)c2)[C@]2(C)[C@H](C)CC[C@]3(CCC(=O)[C@H]32)[C@@H](C)[C@@H]1O [Compound 22b, 22-[(6-Chloro-1-(3,4-difluorophenyl)-1H-pyrazolo[3,4-d]pyrimidine-4-yl)amino]-22-deoxypleuromutilin] | 8 (≈ 12.5 µM) |  | 16 (≈ 24.9 µM) | 16 (≈ 24.9 µM) | 130 to 132 |  | > 64 | 8 (≈ 12.5 µM) | > 64 | > 64 | > 64 | 
C=C[C@]1(C)C[C@@H](OC(=O)CSc2ccc(Nc3nc(Cl)nc4c3cnn4-c3ccc(OC(F)(F)F)cc3)cc2)[C@]2(C)[C@H](C)CC[C@]3(CCC(=O)[C@H]32)[C@@H](C)[C@@H]1O [Compound 23c, 22-[4-(6-Chloro-1-(4-(yrifluoromethoxy)Phenyl)-1H-pyrazolo[3,4-d]pyrimidine-4-yl)amino-Phenylsulfanyl]-22-deoxypleuromutilin] | 0.5 (≈ 0.626 µM) | 0.25 (≈ 0.313 µM) | 1 (≈ 1.25 µM) | 0.5 (≈ 0.626 µM) | 144 to 147 | 1 (≈ 1.25 µM) |  |  | 2 (≈ 2.51 µM) | 1 (≈ 1.25 µM) |  | 1 (≈ 1.25 µM)
C=C[C@]1(C)C[C@@H](OC(=O)CNc2nc(Cl)nc3c2cnn3-c2cccc(Cl)c2)[C@]2(C)[C@H](C)CC[C@]3(CCC(=O)[C@H]32)[C@@H](C)[C@@H]1O [Compound 24b, 22-[(6-Chloro-1-(3-chlorophenyl)-1H-pyrazolo[3,4-d]pyrimidine-4-yl)amino]-22-deoxypleuromutilin] | > 64 | > 64 | > 64 | > 64 | 117 to 119 |  |  |  |  |  |  | 
C=C[C@]1(C)C[C@@H](OC(=O)CSc2ccc(Nc3nc(Cl)nc4c3cnn4-c3cccc(Cl)c3)cc2)[C@]2(C)[C@H](C)CC[C@]3(CCC(=O)[C@H]32)[C@@H](C)[C@@H]1O [Compound 24c, 22-[4-(6-Chloro-1-(3-chlorophenyl)-1H-pyrazolo[3,4-d]pyrimidine-4-yl)amino-Phenylsulfanyl]-22-deoxypleuromutilin] | > 64 | > 64 | > 64 | > 64 | 121 to 124 |  |  |  |  |  |  | 
C=C[C@]1(C)C[C@@H](OC(=O)CNc2nc(Cl)nc3c2cnn3-c2ccc(Cl)cc2)[C@]2(C)[C@H](C)CC[C@]3(CCC(=O)[C@H]32)[C@@H](C)[C@@H]1O [Compound 25b, 22-[(6-Chloro-1-(4-chlorophenyl)-1H-pyrazolo[3,4-d]pyrimidine-4-yl)amino]-22-deoxypleuromutilin] | > 64 | > 64 | > 64 | > 64 | 107 to 111 |  |  |  |  |  |  | 
C=C[C@]1(C)C[C@@H](OC(=O)CSc2ccc(Nc3nc(Cl)nc4c3cnn4-c3ccc(Cl)cc3)cc2)[C@]2(C)[C@H](C)CC[C@]3(CCC(=O)[C@H]32)[C@@H](C)[C@@H]1O [Compound 25c, 22-[4-(6-Chloro-1-(4-chlorophenyl)-1H-pyrazolo[3,4-d]pyrimidine-4-yl)amino-Phenylsulfanyl]-22-deoxypleuromutilin] | 16 (≈ 21.4 µM) | 8 (≈ 10.7 µM) | > 64 | 8 (≈ 10.7 µM) | 124 to 129 | > 64 |  |  |  | 16 (≈ 21.4 µM) |  | 32 (≈ 42.7 µM)
C=C[C@]1(C)C[C@@H](OC(=O)CNc2nc(Cl)nc3c2cnn3-c2cc(Cl)cc(Cl)c2)[C@]2(C)[C@H](C)CC[C@]3(CCC(=O)[C@H]32)[C@@H](C)[C@@H]1O [Compound 26b, 22-[(6-Chloro-1-(3,5-dichlorophenyl)-1H-pyrazolo[3,4-d]pyrimidine-4-yl)amino]-22-deoxypleuromutilin] | > 64 | > 64 | > 64 | > 64 | 151 to 156 |  |  |  |  |  |  | 
C=C[C@]1(C)C[C@@H](OC(=O)CSc2ccc(Nc3nc(Cl)nc4c3cnn4-c3cc(Cl)cc(Cl)c3)cc2)[C@]2(C)[C@H](C)CC[C@]3(CCC(=O)[C@H]32)[C@@H](C)[C@@H]1O [Compound 26c, 22-[4-(6-Chloro-1-(3,5-dichlorophenyl)-1H-pyrazolo[3,4-d]pyrimidine-4-yl)amino-Phenylsulfanyl]-22-deoxypleuromutilin] | > 64 | > 64 | > 64 | > 64 | 137 to 139 |  |  |  |  |  |  | 
